Patent US20230339880A1, “COMPOSITIONS OF AJULEMIC ACID AND USES THEREOF” (priority 2019, published 2023)

Tests used:
Type in all cases: physicochemical
[1] = Thermodynamic solubility studies; conditions: for Average Concentration: triplicate average; for Form by XRPD Dry: residual solids dried under vacuum; for Form by XRPD Wet: residual solids
Description: For each experiment, approximately 50 mg of either crystal form A or crystal form B was weighed into a 20 mL scintillation vial. 15 mL of the appropriate solvent system was added and the solution was stirred at 37° C. At approximately 7.5 h, a portion of the mother liquor was transferred to a pre-heated vial (at 37° C.) via syringe filter (0.45 μm). An aliquot of slurry was removed, and the solids in the aliquot were isolated by centrifugation and plated for XRPD analysis. The plated solids were stored in freezer for 12 h prior to analysis.
The remaining solution was further stirred at 37° C. overnight (approximately 25 h total stirring time). Stirring was then terminated and the solids were allowed to settle. After approximately 0.75 h, a portion of the mother liquor was transferred to a pre-heated vial (at 37° C.) via syringe filter (0.45 μm). The residual solids were isolated by centrifugation and analyzed by XRPD.
For “dry” analysis, the XRPD plates were dried under vacuum at ambient temperature for approximately 23 h and re-analyzed.

[2] = Dynamic Vapor Sorption (DVS)
Description: Approximately 10-20 mg of sample was placed into a mesh vapor sorption balance pan and loaded into a Surface Measurement Systems DVS Intrinsic dynamic vapor sorption balance. The material was subjected to a ramping profile from 40 to 90% relative humidity (RH) at 10% increments, maintaining the sample at each step until a stable weight had been achieved (dm/dt 0.004%, minimum step length 30 minutes, maximum step length 500 minutes) at 25° C. After completion of the sorption cycle, the sample was dried using the same procedure to 0% RH and then a second sorption cycle back to 40% RH was carried out. Two cycles were performed. The weight change during the sorption/desorption cycles were plotted, allowing the hygroscopic nature of the sample to be determined. XRPD analysis was then carried out on any solid retained.
Because this equilibration with ambient humidity is rapid, calculation or use of sufficiently accurate assay results on Form A material must take into account its current water content.

[3] = Thermogravimetric Analysis/Dynamic Temperature Analysis (TGA/DTA); conditions: for TGA wt. loss: from the onset to about 210° C., heating 10° C./min
Description: Approximately 5-10 mg of material was weighed into an open aluminum pan and loaded into a TA Instruments SDT650 and held at room temperature. The sample was then heated at a rate of 10° C./min from 30° C. to 350° C. during which time the change in sample weight was recorded along with the heat flow response (DSC). Nitrogen was used as the purge gas, at a flow rate of 100 cm^3/min for both the sample and balance purges.

[4] = FaSSGF, after approximately 7.5 h at 37° C.
[5] = FaSSGF, after approximately 25 h at 37° C.
[6] = FaSSIF, after approximately 7.5 h at 37° C.
[7] = FaSSIF, after approximately 25 h at 37° C.
[8] = FeSSIF, after approximately 7.5 h at 37° C.
[9] = FeSSIF, after approximately 25 h at 37° C.
[10] = pH 6.1 media, after approximately 7.5 h at 37° C.
[11] = pH 6.1 media, after approximately 25 h at 37° C.
[12] = pH 6.8 media, after approximately 7.5 h at 37° C.
[13] = pH 6.8 media, after approximately 25 h at 37° C.
[14] = FaSSGF, approximately 7.5 h at 37° C.
[15] = FaSSGF, approximately 25 h at 37° C.
[16] = FeSSIF, approximately 7.5 h at 37° C.
[17] = FeSSIF, approximately 25 h at 37° C.
[18] = pH 6.1 media, approximately 25 h at 37° C.
[19] = pH 6.8 media, approximately 25 h at 37° C.

SMILES: CCCCCCC(C)(C)c1cc(O)c2c(c1)OC(C)(C)[C@@H]1CC=C(C(=O)O)C[C@@H]21 [crystal form A, (6aR,10aR)-1-hydroxy-6,6-dimethyl-3-(2-methyl-2-octanyl)-6a,7,10,10a-tetrahydro-6H-benzo[c]chromene-9-carboxylic acid]
- Average Concentration [1, 4]: 0.2 µg/mL
- Average Concentration [1, 5]: 0.2 µg/mL
- Average Concentration [1, 6]: 1063 µg/mL
- Average Concentration [1, 7]: 391 µg/mL
- Average Concentration [1, 8]: 335 µg/mL
- Average Concentration [1, 9]: 227 µg/mL
- Average Concentration [1, 10]: 3.0 µg/mL
- Average Concentration [1, 11]: 2.0 µg/mL
- Average Concentration [1, 12]: 18 µg/mL
- Average Concentration [1, 13]: 14 µg/mL
- Form by XRPD Dry [1, 14]: A + trace B
- Form by XRPD Dry [1, 15]: B + A
- Form by XRPD Dry [1, 16]: A*
- Form by XRPD Dry [1, 17]: (X) +
- Form by XRPD Dry [1, 18]: A +
- Form by XRPD Dry [1, 19]: A*
- Form by XRPD Wet [1, 14]: A + trace B
- Form by XRPD Wet [1, 15]: A + B
- Form by XRPD Wet ([1]; FaSSIF, approximately 25 h at 37° C.): B +
- Form by XRPD Wet [1, 16]: A*
- Form by XRPD Wet [1, 17]: (X) +
- Form by XRPD Wet [1, 18]: A + B
- Form by XRPD Wet [1, 19]: A*
- uptake of water by weight ([2]; at 90% RH, similar DVS studies): about 3.5%
- TGA wt. loss [3]: 0.7 % wt.
- TGA wt. loss ([3]; listed as Crystal Form A): 0.7 % wt.

SMILES: CCCCCCC(C)(C)c1cc(O)c2c(c1)OC(C)(C)[C@@H]1CC=C(C(=O)O)C[C@@H]21 [crystal form B, (6aR,10aR)-1-hydroxy-6,6-dimethyl-3-(2-methyl-2-octanyl)-6a,7,10,10a-tetrahydro-6H-benzo[c]chromene-9-carboxylic acid]
- Average Concentration [1, 4]: 0.3 µg/mL
- Average Concentration [1, 5]: 0.4 µg/mL
- Average Concentration [1, 6]: 242 µg/mL
- Average Concentration [1, 7]: 266 µg/mL
- Average Concentration [1, 8]: 684 µg/mL
- Average Concentration [1, 9]: 696 µg/mL
- Average Concentration [1, 10]: 1.2 µg/mL
- Average Concentration [1, 11]: 0.1 µg/mL
- Average Concentration [1, 12]: 4.3 µg/mL
- Average Concentration [1, 13]: 2.0 µg/mL
- water uptake ([2]; at 90% RH, 25° C.): circa 1 wt %
- hygroscopic nature by DVS ([2]; ramping 40 to 90% RH, 25° C.): slightly hygroscopic
- Post-DVS XRPD analysis ([2]; solid retained after two sorption/desorption cycles): no change in pattern
- TGA wt. loss [3]: 0.9 % wt.
- TGA wt. loss ([3]; listed as Crystal Form B): no significant mass loss
- decomposition temperature by TGA/DTA ([3]; heating 10° C./min from 30° C. to 350° C.): ca. 285 °C
